Results from patent US20060052600A1, “Amino-functional chalcones” (priority 2002, published 2006).
In brackets after ≈: the same amount, converted by molar mass.

Assays:
[1] = system: Staphylococcus aureus ATCC29213; assay: MIC determination in broth microdilution assay
[2] = system: Staphylococcus aureus ATCC33591 (resistant to methicillin); assay: MIC determination in broth microdilution assay
[3] = system: Staphylococcus intermedius #2357 (clinical isolate); assay: MIC determination in broth microdilution assay
[4] = system: Enterococcus faecalis ATCC29212; assay: MIC determination in broth microdilution assay
[5] = system: Enterococcus faecium #17501 (vancomycin-resistant clinical isolate); assay: MIC determination in broth microdilution assay
[6] = system: Streptococcus pneumoniae #998 (clinical isolate); assay: MIC determination in broth microdilution assay
Eschericia coli ESS = assay: MIC determination in broth microdilution assay
[7] = system: panel of non-fastidious bacteria (Gram-positive pathogens and Eschericia coli); assay: Activity against non-fastidious bacteria (panel, results in words); conditions: Gram-positive pathogens
[8] = system: panel of anaerobic bacteria (Bacteroides fragilis, Clostridium perfringens, Clostridium difficele); assay type: cell-based; conditions: single concentration 100 μM
[9] = Determination of metabolic stability (liver microsomes); assay type: in vitro ADME, rat; conditions: for Metabolic turn-over (rat) in vitro: 20 μM, 15 min, 37° C.
Description: Samples were incubated for 15 min at 37° C. and the reactions were terminated by addition of equal volumes of acetonitrile. Blank incubations were performed at the same concentration but without addition of microsomes. Both blank and microsome-containing samples were made in […] of three. […] The fraction of compound metabolised during the 15 min of incubation was determined by comparison of blank and microsome-containing samples using a Waters Alliance 2690 separation module and Waters 996 PDA-detector (Waters. […] This was followed by a 5 minutes linear gradient to initial conditions, which were maintained for 5 min. The flow rate was 0.20 ml/min and injection volume 10 μl.

[10] = Determination of solubility; assay type: physicochemical; conditions: 0.3 M phosphate buffer, 24 hours
Description: Solubility of the compounds was determined by preparing a saturated solution of compound in 0.3 M phosphate buffer (pH 7.4±0.3) in a brown glass tube. The suspensions were rotated slowly for 24 hours. Aliquots were centrifuged for 10 minutes at 14.000 rpm and supernatants were diluted in 40% (v/v) acetonitrile in water prior to HPLC analysis. Concentrations of analytes were quantified against a standard curve and used as term of solubility.
The HPLC-UV method used for the assessment of solubility is the same as used in the in vitro metabolism assay.

[11] = system: DHODH (dihydroorotate dehydrogenase); assay: DHODH assay; assay type: biochemical; conditions: test concentration not given

CCCCN(CCCC)c1ccc(/C=C/C(=O)c2ccccc2CN(C)C)cc1 [A030, (E)-3-(4-Dibutylamino-phenyl)-1-(2-dimethylaminomethyl-phenyl)-propenone]
MIC, A: Staphylococcus aureus ATCC29213 [1]: 9.4 µM (≈ 3.69 µg/mL)
MIC, B: Staphylococcus aureus ATCC33591 [2]: 9.4 µM (≈ 3.69 µg/mL)
MIC, C: Staphylococcus intermedius #2357 [3]: 9.4 µM (≈ 3.69 µg/mL)
MIC, D: Enterococcus faecalis ATCC29212 [4]: 18.8 µM (≈ 7.38 µg/mL)
MIC, E: Enterococcus faecium #17501 [5]: 18.8 µM (≈ 7.38 µg/mL)
MIC, F: Streptococcus pneumoniae #998 [6]: 18.8 µM (≈ 7.38 µg/mL)
MIC, H: Eschericia coli ESS (Eschericia coli ESS): 18.8 µM (≈ 7.38 µg/mL)
activity against the ESS strain of E. coli (Eschericia coli ESS): considerable activity
potency against Gram-positive pathogens in comparison with Licochalcone A [7]: increased potency

C=CC(C)(C)c1cc(/C=C/C(=O)c2cccc(CN(C)C)c2)c(OC)cc1O [A137, (E)-3-[5-(1,1-Dimethyl-allyl)-4-hydroxy-2-methoxy-phenyl]-1-(3-dimethylaminomethyl-phenyl)-propenone]
MIC, A: Staphylococcus aureus ATCC29213 [1]: 4.7 µM (≈ 1.78 µg/mL)
MIC, B: Staphylococcus aureus ATCC33591 [2]: 9.4 µM (≈ 3.57 µg/mL)
MIC, C: Staphylococcus intermedius #2357 [3]: 9.4 µM (≈ 3.57 µg/mL)
MIC, D: Enterococcus faecalis ATCC29212 [4]: 9.4 µM (≈ 3.57 µg/mL)
MIC, E: Enterococcus faecium #17501 [5]: 9.4 µM (≈ 3.57 µg/mL)
MIC, F: Streptococcus pneumoniae #998 [6]: 37.5 µM (≈ 14.2 µg/mL)

O=C(/C=C/c1ccc(Cl)cc1Cl)c1ccccc1CN1CCOCC1 [A037, (E)-3-(2,4-Dichloro-phenyl)-1-(2-morpholin-4-ylmethyl-phenyl)-propenone]
activity against anaerobic bacteria [8]: activity against all microorganisms within the test panel

CN(C)Cc1ccc(C(=O)/C=C/c2ccc(Cl)cc2Cl)cc1 [A011, (E)-3-(2,4-Dichloro-phenyl)-1-(4-dimethylaminomethyl-phenyl)-propenone]
activity against anaerobic bacteria [8]: activity against all microorganisms within the test panel

COc1ccc(C(=O)/C=C/c2cccc(CNCCN(C)C)c2)cc1 [A010, (E)-3-{3-[(2-Dimethylamino-ethylamino)-methyl]-phenyl}-1-(4-methoxy-phenyl)-propenone]
Metabolic turn-over (rat) in vitro [9]: 1%
Solubility in aqueous buffer at pH 7.4 [10]: 33.4 mg/ml

CCCCN(CCCC)c1ccc(/C=C/C(=O)c2ccc(CN(C)C)cc2)cc1 [A033, (E)-3-(4-Dibutylamino-phenyl)-1-(4-dimethylaminomethyl-phenyl)-propenone]
MIC, A: Staphylococcus aureus ATCC29213 [1]: 4.7 µM (≈ 1.85 µg/mL)
MIC, B: Staphylococcus aureus ATCC33591 [2]: 9.4 µM (≈ 3.69 µg/mL)
MIC, C: Staphylococcus intermedius #2357 [3]: 4.7 µM (≈ 1.85 µg/mL)
MIC, D: Enterococcus faecalis ATCC29212 [4]: 9.4 µM (≈ 3.69 µg/mL)
MIC, E: Enterococcus faecium #17501 [5]: 9.4 µM (≈ 3.69 µg/mL)
MIC, F: Streptococcus pneumoniae #998 [6]: 75.0 µM (≈ 29.4 µg/mL)
MIC, H: Eschericia coli ESS (Eschericia coli ESS): 150.0 µM (≈ 58.9 µg/mL)
potency against Gram-positive pathogens in comparison with Licochalcone A [7]: increased potency

CNCc1cccc(/C=C/C(=O)c2ccc(OC)cc2)c1 [A099, (E)-1-(4-Methoxy-phenyl)-3-(3-methylaminomethyl-phenyl)-propenone]
Metabolic turn-over (rat) in vitro [9]: 7%

COc1ccc(Nc2cccnc2)cc1/C=C/C(=O)c1ccccc1CN(C)C [A102, (E)-1-(2-Dimethylaminomethyl-phenyl)-3-[2-methoxy-5-(pyridin-3-ylamino)-phenyl]-propenone]
Metabolic turn-over (rat) in vitro [9]: 2%
metabolism (turn-over), rat ([9]; rat): 2%

CCCCN(CCCC)c1ccc(/C=C/C(=O)c2ccc(OC)c(CN(C)C)c2)cc1 [A110, (E)-3-(4-Dibutylamino-phenyl)-1-(3-dimethylaminomethyl-4-methoxy-phenyl)-propenone]
Metabolic turn-over (rat) in vitro [9]: 6%

CCCN(CCC)c1ccc(/C=C/C(=O)c2ccccc2CN(C)C)c(OCC)c1 [A084, (E)-1-(2-Dimethylaminomethyl-phenyl)-3-(4-dipropylamino-2-ethoxy-phenyl)-propenone]
activity against the ESS strain of E. coli (Eschericia coli ESS): considerable activity

COc1ccc(C(=O)/C=C/c2ccc(OC)c(CN(C)C)c2)cc1 [A086, (E)-3-(3-Dimethylaminomethyl-4-methoxy-phenyl)-1-(4-methoxy-phenyl)-propenone]
Solubility in aqueous buffer at pH 7.4 [10]: 8.9 mg/ml

COc1ccc(C(=O)/C=C/c2cccc(CN3CCN(C)CC3)c2)cc1 [A013, (E)-1-(4-Methoxy-phenyl)-3-[3-(4-methyl-piperazin-1-ylmethyl)-phenyl]-propenone]
Solubility in aqueous buffer at pH 7.4 [10]: 31.2 mg/ml

CCCCN(CCCC)c1cccc(/C=C/C(=O)c2ccc(OC)c(CN(C)C)c2)c1 [A129, (E)-3-(3-Dibutylamino-phenyl)-1-(3-dimethylaminomethyl-4-methoxy-phenyl)-propenone]
MIC, A: Staphylococcus aureus ATCC29213 [1]: 4.7 µM (≈ 1.99 µg/mL)
MIC, B: Staphylococcus aureus ATCC33591 [2]: 9.4 µM (≈ 3.97 µg/mL)
MIC, C: Staphylococcus intermedius #2357 [3]: 9.4 µM (≈ 3.97 µg/mL)
MIC, D: Enterococcus faecalis ATCC29212 [4]: 9.4 µM (≈ 3.97 µg/mL)
MIC, E: Enterococcus faecium #17501 [5]: 9.4 µM (≈ 3.97 µg/mL)
MIC, F: Streptococcus pneumoniae #998 [6]: 37.5 µM (≈ 15.8 µg/mL)
MIC, H: Eschericia coli ESS (Eschericia coli ESS): 9.4 µM (≈ 3.97 µg/mL)

COc1ccc(OC)c(/C=C/C(=O)c2ccccc2CN2CCNCC2)c1 [A049, (E)-3-(2,5-Dimethoxy-phenyl)-1-(2-piperazin-1-ylmethyl-phenyl)-propenone]
Metabolic turn-over (rat) in vitro [9]: 0%
Solubility in aqueous buffer at pH 7.4 [10]: 6.3 mg/ml

CCCCN(CCCC)c1ccc(/C=C/C(=O)c2ccc(CN3CCN(C)CC3)cc2)cc1 [A025, (E)-3-(4Dibutylamino-phenyl)-1-[4-(4-methyl-piperazin-1-ylmethyl)-phenyl]-propenone]
Inhibition of DHODH [11]: 26%
MIC, A: Staphylococcus aureus ATCC29213 [1]: 9.4 µM (≈ 4.21 µg/mL)
MIC, B: Staphylococcus aureus ATCC33591 [2]: 9.4 µM (≈ 4.21 µg/mL)
MIC, C: Staphylococcus intermedius #2357 [3]: 9.4 µM (≈ 4.21 µg/mL)
MIC, D: Enterococcus faecalis ATCC29212 [4]: 9.4 µM (≈ 4.21 µg/mL)
MIC, E: Enterococcus faecium #17501 [5]: 9.4 µM (≈ 4.21 µg/mL)
MIC, F: Streptococcus pneumoniae #998 [6]: 37.5 µM (≈ 16.8 µg/mL)
MIC, H: Eschericia coli ESS (Eschericia coli ESS): 75.0 µM (≈ 33.6 µg/mL)
potency against Gram-positive pathogens in comparison with Licochalcone A [7]: increased potency

CN(C)Cc1cccc(C(=O)/C=C/c2ccc(Cl)cc2Cl)c1 [A020, (E)-3-(2,4-Dichloro-phenyl)-1-(3-dimethylaminomethyl-phenyl)-propenone]
Inhibition of DHODH [11]: 23%

COc1ccc(C(=O)/C=C/c2cccc(CN(C)CCN(C)C)c2)cc1 [A069, (E)-3-(3-{[(2-Dimethylamino-ethyl)-methyl-amino]-methyl}-phenyl)-1-(4-methoxy-phenyl)-propenone]
Solubility in aqueous buffer at pH 7.4 [10]: >10 mg/ml

CCN(CC)Cc1ccccc1C(=O)/C=C/c1ccc(Cl)cc1Cl [A045, (E)-3-(2,4-Dichloro-phenyl)-1-(2-diethylaminomethyl-phenyl)-propenone]
Inhibition of DHODH [11]: 20%

CN1CCN(Cc2cccc(C(=O)/C=C/c3ccc(Cl)cc3Cl)c2)CC1 [A021, (E)-3-(2,4-Dichloro-phenyl)-1-[3-(4-methyl-piperazin-1-ylmethyl)-phenyl]-propenone]
Inhibition of DHODH [11]: 27%

COc1ccc(C(=O)/C=C/c2ccc(CNCCN(C)C)cc2)cc1 [A005, (E)-3-{4-[(2-Dimethylamino-ethylamino)-methyl]-phenyl}-1-(4-methoxy-phenyl)-propenone]
Solubility in aqueous buffer at pH 7.4 [10]: >6 mg/ml

C=CC(C)(C)c1cc(/C=C/C(=O)c2ccccc2CN2CCN(C)CC2)c(OC)cc1Cl [A083, (E)-3-[4-Chloro-5-(1,1-dimethyl-allyl)-2-methoxy-phenyl]-1-[2-(4-methyl-piperazin-1-ylmethyl)-phenyl]-propenone]
MIC, A: Staphylococcus aureus ATCC29213 [1]: 9.4 µM (≈ 4.26 µg/mL)
MIC, B: Staphylococcus aureus ATCC33591 [2]: 9.4 µM (≈ 4.26 µg/mL)
MIC, C: Staphylococcus intermedius #2357 [3]: 18.8 µM (≈ 8.52 µg/mL)
MIC, D: Enterococcus faecalis ATCC29212 [4]: 18.8 µM (≈ 8.52 µg/mL)
MIC, E: Enterococcus faecium #17501 [5]: 9.4 µM (≈ 4.26 µg/mL)
MIC, F: Streptococcus pneumoniae #998 [6]: 18.8 µM (≈ 8.52 µg/mL)
MIC, H: Eschericia coli ESS (Eschericia coli ESS): 9.4 µM (≈ 4.26 µg/mL)
activity against the ESS strain of E. coli (Eschericia coli ESS): considerable activity
potency against Gram-positive pathogens in comparison with Licochalcone A [7]: increased potency

COc1ccc(OC)c(/C=C/C(=O)c2ccccc2CN(C)C)c1 [A029, (E)-3-(2,5-Dimethoxy-phenyl)-1-(2-dimethylaminomethyl-phenyl)-propenone]
Metabolic turn-over (rat) in vitro [9]: 3%
